Columns and labels:
[1] = system: formalin model; experiment: Formalin test in mice (primary in vivo screening and ED50); set-up: species or system ICR male mice; conditions: mice, second phase; for % Inhibition in the second phase of the formalin model relative to vehicle control: 5 mg/kg intraperitoneal; for ED50: Mus musculus, ip, intraperitoneal, doses 0.1, 1, 5 and 10 mg/kg, read-out: ED50 in the second phase of the formalin model
Description: For primary screening, the synthesized compounds were administered to mice via intraperitoneal injection at a dose of 5 mg/kg using the formalin model. The percentage inhibition in the second phase, relative to the vehicle control (DMSO/cremophor EL/distilled water = 10:10:80), was calculated.
Each compound was assessed using four doses (0.1, 1, 5, and 10 mg/kg) by intraperitoneal injection.
ICR male mice weighing 23–25 g was purchased from Samtako Korea (Osan, Republic of Korea). ICR mice were housed four per cage in a room with 12 h light–dark cycles. The temperature and relative humidity of the room were maintained at 22 ± 2 °C and 50 ± 5%, respectively. Food and water were available ad libitum. The procedures for animal testing were approved by Medifron Animal Care and Use Committees (Approval number; Medifron 2019-9). Efforts were made to minimize animal suffering and to reduce the number of animals used.
Mice were randomly assigned to five groups (four per group) and single-dose drugs were administered by intraperitoneal injection. The formalin-induced licking paw test was modified from the method described by Dubuisson and Dennis. Each mouse was acclimated to an acrylic observation chamber for at least 30 min before the injection of formalin. Twenty microliters of 2% formalin were injected subcutaneously into the right side of the hind paw. Each mouse was then placed in an individual clear plastic observational chamber (15 × 15 × 15 cm, volume = […] or 3.375 L), and the pain response was recorded for a period of 30 min. The summation of time (in seconds) spent in licking and biting responses of the injected paw during each 5 min block was measured as an indicator of the pain response. The first period (early phase) was recorded 0–5 min after the injection of formalin, and the second period (late phase) was recorded 20–30 min after the injection. The test compound was administered intraperitoneally 30 min before the formalin injection at […]: 0.1, 1, 5, and 10 mg/kg. The vehicle was DMSO/Cremophor EL/distilled water (10/10/80). The data were expressed as the mean ± standard error of the mean (SEM). Statistical analysis was assessed by one-way analysis of variance (ANOVA) with Bonferroni’s post hoc test. Statistical significance was set at p-value < 0.05, with values of p <0.001 considered highly significant.

[2] = target: Serotonin 5-HT2A (Homo sapiens, UniProt P28223); experiment: Radioligand binding, [3H] Ketanserin, Eurofins; conditions: Serotonin 5-HT2A
Serotonin 5-HT2A, sequence (P28223 whole entry): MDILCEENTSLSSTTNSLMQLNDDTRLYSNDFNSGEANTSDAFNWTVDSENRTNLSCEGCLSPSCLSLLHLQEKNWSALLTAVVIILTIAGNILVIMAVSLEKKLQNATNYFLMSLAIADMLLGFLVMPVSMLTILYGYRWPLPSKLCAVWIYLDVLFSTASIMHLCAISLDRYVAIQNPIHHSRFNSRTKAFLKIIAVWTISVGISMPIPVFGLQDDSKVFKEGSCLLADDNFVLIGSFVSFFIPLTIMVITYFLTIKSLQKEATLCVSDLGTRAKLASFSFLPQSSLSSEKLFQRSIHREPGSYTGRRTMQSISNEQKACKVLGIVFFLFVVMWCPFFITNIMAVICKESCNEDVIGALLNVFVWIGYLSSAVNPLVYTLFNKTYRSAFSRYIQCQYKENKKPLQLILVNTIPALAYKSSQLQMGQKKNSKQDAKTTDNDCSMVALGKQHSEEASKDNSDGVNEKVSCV

[3] = target: CYP2C9 (Homo sapiens, UniProt P11712); experiment: Cytochrome P450 (CYP) inhibition assay; conditions: microsomes, pH 7.4
CYP2C9, sequence (P11712 whole entry): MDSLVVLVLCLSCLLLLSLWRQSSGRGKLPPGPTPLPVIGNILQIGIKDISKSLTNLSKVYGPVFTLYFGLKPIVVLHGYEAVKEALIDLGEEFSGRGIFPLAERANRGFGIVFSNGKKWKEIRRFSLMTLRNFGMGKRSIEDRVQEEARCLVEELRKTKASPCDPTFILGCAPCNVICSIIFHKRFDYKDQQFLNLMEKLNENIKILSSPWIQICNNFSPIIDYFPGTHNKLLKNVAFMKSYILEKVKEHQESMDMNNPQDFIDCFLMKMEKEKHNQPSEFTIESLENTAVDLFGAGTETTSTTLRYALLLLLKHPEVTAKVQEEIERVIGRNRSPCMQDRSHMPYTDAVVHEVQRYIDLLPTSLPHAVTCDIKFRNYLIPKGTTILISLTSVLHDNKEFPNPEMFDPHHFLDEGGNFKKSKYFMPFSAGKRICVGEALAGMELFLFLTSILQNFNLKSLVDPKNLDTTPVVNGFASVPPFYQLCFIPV

[4] = target: CYP3A4 (Homo sapiens, UniProt P08684); experiment: Cytochrome P450 (CYP) inhibition assay; conditions: microsomes, pH 7.4
CYP3A4, sequence (P08684 whole entry): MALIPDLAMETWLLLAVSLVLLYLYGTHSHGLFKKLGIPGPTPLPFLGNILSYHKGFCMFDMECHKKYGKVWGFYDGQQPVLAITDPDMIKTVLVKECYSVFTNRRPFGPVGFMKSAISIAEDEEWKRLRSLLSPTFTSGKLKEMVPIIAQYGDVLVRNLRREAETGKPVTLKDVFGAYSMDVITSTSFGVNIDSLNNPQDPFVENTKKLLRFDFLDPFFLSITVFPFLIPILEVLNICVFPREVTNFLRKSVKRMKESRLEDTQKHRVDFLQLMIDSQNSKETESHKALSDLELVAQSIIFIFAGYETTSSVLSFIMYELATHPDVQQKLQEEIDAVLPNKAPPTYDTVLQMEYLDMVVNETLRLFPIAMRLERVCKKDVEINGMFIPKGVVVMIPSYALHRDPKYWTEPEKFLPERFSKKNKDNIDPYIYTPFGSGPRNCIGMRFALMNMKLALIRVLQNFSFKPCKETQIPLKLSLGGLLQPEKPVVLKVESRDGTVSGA

[5] = target: CYP2C19 (Homo sapiens, UniProt P33261); experiment: Cytochrome P450 (CYP) inhibition assay; conditions: microsomes, pH 7.4
CYP2C19, sequence (P33261 whole entry): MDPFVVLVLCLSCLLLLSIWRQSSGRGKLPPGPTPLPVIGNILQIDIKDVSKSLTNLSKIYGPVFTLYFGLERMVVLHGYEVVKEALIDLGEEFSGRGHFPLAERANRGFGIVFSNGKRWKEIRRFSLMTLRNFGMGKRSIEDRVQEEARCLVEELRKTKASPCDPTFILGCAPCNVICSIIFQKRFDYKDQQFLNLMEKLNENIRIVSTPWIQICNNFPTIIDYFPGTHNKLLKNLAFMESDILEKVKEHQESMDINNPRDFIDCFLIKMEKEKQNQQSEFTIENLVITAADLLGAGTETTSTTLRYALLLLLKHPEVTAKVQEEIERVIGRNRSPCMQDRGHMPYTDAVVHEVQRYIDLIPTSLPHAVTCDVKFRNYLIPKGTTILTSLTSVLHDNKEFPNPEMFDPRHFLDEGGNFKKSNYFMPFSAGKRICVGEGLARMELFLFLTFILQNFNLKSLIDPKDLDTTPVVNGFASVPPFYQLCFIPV

[6] = target: T1, Dopamine D2L (Homo sapiens, UniProt P14416); experiment: Radioligand binding, [3H] Spiperone, Eurofins; conditions: Dopamine D2L
T1 construct: host or cells: CHO cells
T1 sequence (P14416 whole entry): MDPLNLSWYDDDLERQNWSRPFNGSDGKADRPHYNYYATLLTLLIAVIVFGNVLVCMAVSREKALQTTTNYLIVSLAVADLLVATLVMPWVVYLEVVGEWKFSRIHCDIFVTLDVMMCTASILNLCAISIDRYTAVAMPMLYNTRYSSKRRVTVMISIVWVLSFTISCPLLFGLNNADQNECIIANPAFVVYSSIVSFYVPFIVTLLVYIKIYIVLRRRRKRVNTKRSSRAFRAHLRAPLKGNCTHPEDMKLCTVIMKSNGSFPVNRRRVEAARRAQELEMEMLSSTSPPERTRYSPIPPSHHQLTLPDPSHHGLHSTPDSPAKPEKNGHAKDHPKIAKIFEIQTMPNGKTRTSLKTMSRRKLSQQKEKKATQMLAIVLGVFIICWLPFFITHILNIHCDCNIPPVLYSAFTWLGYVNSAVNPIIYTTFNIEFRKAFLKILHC

[7] = target: T2, Transporter, Dopamine (DAT) (Homo sapiens, UniProt Q01959); experiment: Radioligand binding, [125I] RTI-55, Eurofins; conditions: DAT
T2 construct: host or cells: CHO-S cells
T2 sequence (Q01959 whole entry): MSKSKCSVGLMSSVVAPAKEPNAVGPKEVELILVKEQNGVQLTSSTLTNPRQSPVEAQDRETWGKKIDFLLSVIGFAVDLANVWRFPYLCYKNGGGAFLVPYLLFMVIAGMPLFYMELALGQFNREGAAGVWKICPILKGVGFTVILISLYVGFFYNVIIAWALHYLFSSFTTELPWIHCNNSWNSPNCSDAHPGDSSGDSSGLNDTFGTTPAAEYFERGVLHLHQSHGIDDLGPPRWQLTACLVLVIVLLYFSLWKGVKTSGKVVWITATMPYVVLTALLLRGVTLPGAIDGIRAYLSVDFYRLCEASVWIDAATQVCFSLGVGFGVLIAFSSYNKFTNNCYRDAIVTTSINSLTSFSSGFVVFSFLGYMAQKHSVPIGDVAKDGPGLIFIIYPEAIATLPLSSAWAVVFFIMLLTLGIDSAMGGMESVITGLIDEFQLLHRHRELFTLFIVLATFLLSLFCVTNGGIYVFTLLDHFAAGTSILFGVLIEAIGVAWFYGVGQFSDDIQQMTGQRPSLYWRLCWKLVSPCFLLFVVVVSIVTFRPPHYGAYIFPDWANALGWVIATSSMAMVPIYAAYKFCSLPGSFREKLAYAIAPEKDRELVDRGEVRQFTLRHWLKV

[8] = target: T3, Adrenergic α2A (Homo sapiens, UniProt P08913); experiment: Radioligand binding, [3H] Rauwolscine, Eurofins; conditions: Adrenergic α2A
T3 sequence (P08913 1-465): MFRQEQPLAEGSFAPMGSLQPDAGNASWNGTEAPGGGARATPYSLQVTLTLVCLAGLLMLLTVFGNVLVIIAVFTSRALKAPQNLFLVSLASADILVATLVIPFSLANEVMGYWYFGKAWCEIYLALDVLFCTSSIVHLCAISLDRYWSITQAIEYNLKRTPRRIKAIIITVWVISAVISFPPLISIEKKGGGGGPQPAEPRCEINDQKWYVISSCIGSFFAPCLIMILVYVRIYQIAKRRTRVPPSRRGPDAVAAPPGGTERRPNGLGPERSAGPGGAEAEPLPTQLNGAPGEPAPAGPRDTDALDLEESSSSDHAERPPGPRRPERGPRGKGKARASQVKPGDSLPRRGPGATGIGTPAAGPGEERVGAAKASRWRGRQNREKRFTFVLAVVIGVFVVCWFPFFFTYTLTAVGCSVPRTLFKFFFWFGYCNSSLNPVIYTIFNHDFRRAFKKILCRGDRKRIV

Compound | % Inhibition in the second phase of the formalin model relative to vehicle control [1] [%] | other results
N#Cc1ccc2[nH]cc(C(=O)NCCN3CCN(C(=O)C4COc5ccccc5O4)CC3)c2c1 (stereo not drawn) [Compound 35, 5-Cyano-N-(2-(4-(2,3-dihydrobenzo[b][1,4]dioxine-2-carbonyl)piperazin-1-yl)ethyl)-1H-indole-3-carboxamide] | 0.4 | –
N#Cc1ccc2[nH]cc(C(=O)NCCCN3CCN(c4cccc(Cl)c4)CC3)c2c1 [Compound 37, N-(3-(4-(3-Chlorophenyl)piperazin-1-yl)propyl)-5-cyano-1H-indole-3-carboxamide] | – | ED50 [1]: 3.2 mg/kg
N#Cc1ccc2[nH]cc(C(=O)NCCCN3CCN(c4cccc(C(F)(F)F)c4)CC3)c2c1 [Compound 38, 5-Cyano-N-(3-(4-(3-(trifluoromethyl)phenyl)piperazin-1-yl)propyl)-1H-indole-3-carboxamide] | 37.1 | –
N#Cc1ccc2[nH]cc(C(=O)NCCCN3CCN(c4ccc(Cl)cc4)CC3)c2c1 [Compound 40, N-(3-(4-(4-Chlorophenyl)piperazin-1-yl)propyl)-5-cyano-1H-indole-3-carboxamide] | 4.7 | –
N#Cc1ccc2[nH]cc(C(=O)NCCCN3CCN(c4ccc(C(F)(F)F)cc4)CC3)c2c1 [Compound 41, 5-Cyano-N-(3-(4-(4-(trifluoromethyl)phenyl)piperazin-1-yl)propyl)-1H-indole-3-carboxamide] | 16.5 | –
N#Cc1ccc2[nH]cc(C(=O)NCCCN3CCN(c4cccc(C(F)(F)F)n4)CC3)c2c1 [Compound 42, 5-Cyano-N-(3-(4-(6-(trifluoromethyl)pyridin-2-yl)piperazin-1-yl)propyl)-1H-indole-3-carboxamide] | 45.7 | –
N#Cc1ccc2[nH]cc(C(=O)NCCCN3CCN(c4ncccc4Cl)CC3)c2c1 [Compound 43, N-(3-(4-(3-Chloropyridin-2-yl)piperazin-1-yl)propyl)-5-cyano-1H-indole-3-carboxamide] | 45.3 | –
N#Cc1ccc2[nH]cc(C(=O)NCCCN3CCN(c4ncccc4C(F)(F)F)CC3)c2c1 [Compound 44, 5-Cyano-N-(3-(4-(3-(trifluoromethyl)pyridin-2-yl)piperazin-1-yl)propyl)-1H-indole-3-carboxamide] | 3.7 | –
N#Cc1ccc2[nH]cc(C(=O)NCCCN3CCN(c4ccc5ccccc5n4)CC3)c2c1 [Compound 45, 5-Cyano-N-(3-(4-(quinolin-2-yl)piperazin-1-yl)propyl)-1H-indole-3-carboxamide] | – | ED50 [1]: 0.93 mg/kg
N#Cc1ccc2[nH]cc(C(=O)NCCCN3CCN(c4ccc5oc(C(N)=O)cc5c4)CC3)c2c1 [Compound 46, N-(3-(4-(2-Carbamoylbenzofuran-5-yl)piperazin-1-yl)propyl)-5-cyano-1H-indole-3-carboxamide] | 49.2 | –
N#Cc1ccc2[nH]cc(C(=O)NCCCN3CCN(C(=O)c4ccc(F)cc4)CC3)c2c1 [Compound 49, 5-Cyano-N-(3-(4-(4-fluorobenzoyl)piperazin-1-yl)propyl)-1H-indole-3-carboxamide] | 20.3 | –
N#Cc1ccc2[nH]cc(C(=O)NCCCN3CCN(C(=O)c4cccc(C(F)(F)F)c4)CC3)c2c1 [Compound 50, 5-Cyano-N-(3-(4-(3-(trifluoromethyl)benzoyl)piperazin-1-yl)propyl)-1H-indole-3-carboxamide] | 2.9 | –
N#Cc1ccc2[nH]cc(C(=O)NCCCN3CCN(C(=O)C4COc5ccccc5O4)CC3)c2c1 (stereo not drawn) [Compound 51, 5-Cyano-N-(3-(4-(2,3-dihydrobenzo[b][1,4]dioxine-2-carbonyl)piperazin-1-yl)propyl)-1H-indole-3-carboxamide] | 27.3 | –
N#Cc1ccc2[nH]cc(C(=O)NCCN3CCC(c4noc5cc(F)ccc45)CC3)c2c1 [Compound 52, 5-Cyano-N-(2-(4-(6-fluorobenzo[d]isoxazol-3-yl)piperidin-1-yl)ethyl)-1H-indole-3-carboxamide] | 46.7 | –
N#Cc1ccc2[nH]cc(C(=O)NCCN3CCC(n4c(=O)[nH]c5cc(Cl)ccc54)CC3)c2c1 [Compound 53, N-(2-(4-(5-Chloro-2-oxo-2,3-dihydro-1H-benzo[d]imidazol-1-yl)piperidin-1-yl)ethyl)-5-cyano-1H-indole-3-carboxamide] | 14.3 | –
N#Cc1ccc2[nH]cc(C(=O)NCCCN3CCC(n4c(=O)[nH]c5cc(Cl)ccc54)CC3)c2c1 [Compound 55, N-(3-(4-(5-Chloro-2-oxo-2,3-dihydro-1H-benzo[d]imidazol-1-yl)piperidin-1-yl)propyl)-5-cyano-1H-indole-3-carboxamide] | 24.0 | –
O=C(c1ccc(F)cc1)C1CCN(CCn2c(=O)[nH]c3ccccc3c2=O)CC1 [Ketanserin, reference compound] | – | nH (Hill coefficient) [2]: 0.99
CC(=O)N1CCN(c2ccc(OCC3COC(Cn4ccnc4)(c4ccc(Cl)cc4Cl)O3)cc2)CC1 (stereo not drawn) [Ketoconazole] | – | inhibition at 15 min, 0.1 µM [3]: 3.2%; inhibition at 15 min, 0.1 µM [4]: 68%; inhibition at 15 min, 0.1 µM [5]: 0%
O=C(CCCN1CCC2(CC1)C(=O)NCN2c1ccccc1)c1ccc(F)cc1 [Spiperone, reference compound] | – | nH (Hill coefficient) [6]: 0.71
Fc1ccc(C(OCCN2CCN(CCCc3ccccc3)CC2)c2ccc(F)cc2)cc1 [Vanoxerine, reference compound] | – | nH (Hill coefficient) [7]: 1.01
COC(=O)[C@@H]1[C@H]2C[C@H]3c4[nH]c5ccccc5c4CCN3C[C@@H]2CC[C@@H]1O [Yohimbine, reference compound] | – | nH (Hill coefficient) [8]: 0.88
NCC1(CC(=O)O)CCCCC1 [gabapentin, reference compound] | 70.7 | –

From paper PMC11859264, “Discovery of a Novel Multitarget Analgesic Through an In Vivo-Guided Approach” (Pharmaceuticals, 2025)
